Test results published in US20180311124A1, “CLIMBAZOLE MICROCAPSULE AND HAIR CARE COMPOSITION COMPRISING SURFACTANT AND CLIMBAZOLE” (priority 2015, published 2018).
Read-outs that look alike come from different tables or passages of the source.

What was measured:
[1] = Screen of perfume components, perfume mixtures and oils for ability to solubilise climbazole
Excerpt: A number of perfume components, perfume mixtures and oils considered to be safe to use on scalp were screened to evaluate their ability to solubilise climbazole. Because emulsion polymerisation also encapsulates the solvent an efficient solvent is needed to get a high loading of climbazole into a microcapsule.

[2] = manufacturer's published literature; cited from earlier work
[3] = test system: M. Furfur; experiment: ZOI test comparing with PS latex (Example 5); assay type: cell-based, Malassezia furfur; settings: ruptured by rubbing; 1 g shampoo of table 3 diluted with 3.9 g water and 0.1 g model sebum
Description: Zone of Inhibition (ZOI) Method • 1. L&N agar plates were appropriately labelled. • 2. 0.25 ml or 1 ml of quarter strength inoculum was pipetted onto the surface of each plate. • 3. The inoculum was spread evenly over the whole surface of the plates using a sterile spreader. • 4. Filter paper discs were added, in triplicate to the control plate and plates labelled 1 to 5 unruptured and left for 30 minutes in order to soak up any moisture from the agar. • 5. 15 μl of each (diluted, unruptured) formulation were pipetted onto each of the 3 discs in the appropriate agar plate. The liquid was allowed to soak into the disc. • 6. An additional disc was placed over the original discs in the control and 1 to 5 unruptured plates and the liquid allowed to soak into the additional discs. • 7. The discs from the previously ruptured samples were added in triplicate to separate Leeming and Notman agar plates and allowed to absorb moisture from the plates. • 8. […] Any zone of inhibition observed was measured and recorded.
The efficacy of climbazole microcapsules on the growth of M. Furfur measured using Zone of Inhibition (ZOI) when the microcapsules had been ruptured by simple rubbing to simulate hair washing was tested both for the solvent containing core shell microcapsules according to the invention and the latex particles according to the prior art. […]

With `CC(=O)OCc1ccccc1` [Benzyl Acetate] the “ratio of solvent to climbazole” value [1] was 5:1.

In the case of `CC(C)(C)C(=O)C(Oc1ccc(Cl)cc1)n1ccnc1` (racemic) [climbazole, (RS)-1-(4-Chlorophenoxy)-1-imidazol-1-yl-3,3-dimethylbutan-2-one], the solubility [2] is listed as “soluble in alcohol, glycols, surfactants and certain perfume oils” and the “Ruptured mean ZOI (mm)” value [3] is listed as 1.00^1 mm.

In the case of Coconut oil, the “ability to solubilise climbazole” value [1] is reported as “failed to solubilise it at any ratio tested”.

For `CC(O)CO` (stereo not drawn) [propylene glycol], the “ability to solubilise climbazole” value [1] was “failed to solubilise it at any ratio tested”.

In the case of `CCOC(=O)C=Cc1ccccc1` [Ethyl Cinnamate], the “ability to solubilise climbazole” value ([1]; solvent screened at the solvent:climbazole ratios tested) is reported as “failed to solubilise it at any ratio tested”.
